Measurements reported in publication PMC10876669, “Substrate promiscuity of inositol 1,4,5-trisphosphate kinase driven by structurally-modified ligands and active site plasticity” (Nature Communications, 2024).
Values joined by “and” are separate entries in the source; they are usually repeats but may differ in a detail not shown here. Equal entries are not always repeated.

How the values were obtained:
[1] = tested on: permeabilized rat hepatocytes; set-up: method as in PMID 11405648; details: cited from earlier work
[2] = biological target: T1, IP3K-KD (human IP3K-KD A isoform, residues 187–461) (Homo sapiens, UniProt P23677); experiment: Ligand displacement assay: fluorescence polarization (anisotropy) of 2-FITC-InsP3/IP3K-KD complex; type: binding; details: for IC50: 100 nM IP3K-KD, 2 nM 2-FITC-InsP3, 20 mM HEPES pH 7.5, 1 mM EDTA, 50 mM KCl, n=4 replicates, 5-s and 5-p racemic, read-out: IC50, displacement of 2-FITC-InsP3 from IP3K-KD; for Quality as IP3K ligand (in words): Fig. 6; for Kd: estimated Ki (Kd) from IC50 with [2-FITC-InsP3] 2 nM and its Kd 68 nM, read-out: Kd inferred from IC50 (Cheng and Prusoff)
T1 construct: human IP3K-KD A isoform (residues 187–461); GST (cleaved yes); made in house; host or cells: Escherichia coli BL21 star (DE3)
Method: (§1) A construct encoding human IP3K-KD A isoform (residues 187–461) into pOPTG vector was used[16]. The protein was expressed in Escherichia coli BL21 star (DE3) strain. Cells were grown at 37 °C to OD600 = 1.0 then induced with 0.4 mM IPTG for 18 h at 16 °C. Protein purification was performed by adapting the reported protocol. Cells were resuspended in buffer A (10 mM Tris pH 7.5 [4 °C], 200 mM NaCl and 2 mM DTT) and disrupted by sonication. Clarified cell lysate was diluted 1/4 in buffer B (10 mM Tris pH 7.5 [4 °C] and 2 mM DTT) and loaded into a 5 mL HiTrap heparin column (GE Healthcare) washed by buffer C (20 mM Tris pH 7.5, 50 mM NaCl and 2 mM DTT), and eluted with a 0.05 M–1 M salt gradient. The eluted sample was subsequently loaded on to a 5 mL glutathione–Sepharose HP column (GE Healthcare), washed with buffer A and eluted with reduced glutathione 10 mM (Sigma-Aldrich) in buffer A. The GST tag was cleaved with home-made TEV (tobacco etch virus) protease overnight at 4 °C, (1:40 TEV/protein mass ratio). After glutathione removal with a PD10 column, the cleaved protein was further purified using a 5 mL glutathione–Sepharose HP column (GE Healthcare) followed by gel filtration on a 16/600 Superdex200 (GE Healthcare) column equilibrated in buffer D (20 mM Tris pH 7.5 [4 °C], 0.05 M (NH4)2SO4 and 2 mM DTT). Protein samples were analyzed by SDS/PAGE, concentrated around 18 mg/mL and stored at −80 °C until use.
Binding of a competing/displacing ligand to protein is observed as a decrease in the polarization (anisotropy) of 2-FITC-InsP3. A comparison of the strength of binding of enzyme substrates, analogues and products to IP3K-KD was obtained by measurement of fluorescence polarization (here anisotropy) of 2-FITC-InsP3/IP3K-KD complex. Experimentally, 100 nM IP3K-KD was mixed with 2 nM 2-FITC-InsP3[37] in 20 mM HEPES pH 7.5, 1 mM EDTA and 50 mM KCl with the addition of displacing compounds over a range of 1 nM–50 μM. Assays were analyzed using a ClarioSTAR plate reader and IC50 values determined from fit of the data to a 4-parameter logistic as described. From IC50 values, we have estimated the Ki (Kd) values for the displacing ligands using the equation of Cheng and Prusoff:[69]1 Ki=IC50/1+L/Kd where [L] is the ligand (2-FITC-InsP3) concentration and Kd the dissociation constant for its interaction with IP3K-KD. […] Consequently, the Ki values for the displacing ligands differ trivially from their IC50 values.

[3] = biological target: T1, IP3K-KD (human IP3K-KD A isoform, residues 187–461); experiment: Fluorescence thermal shift analysis (Tycho NT.6, inflection temperature Ti); type: binding; details: for Ti, transition 1 (mean inflection temperature) / Ti, transition 2 (mean inflection temperature): 10 μM IP3K-KD, 100 μM chiral or 200 μM racemic ligand, AMP-PNP or ADP, 100 μM MgCl2; for Ti, transition 1 (mean inflection temperature) / Ti, transition 2 (mean inflection temperature) / ΔTi, transition 1 / ΔTi, transition 2: mean ± SD, n=3; for ΔTi, transition 1: Ti minus Ti of apo IP3K-KD (44.4); for ΔTi, transition 2: Ti minus Ti of apo IP3K-KD (53.8); for Transition 1 Ti, individual measurement / Transition 2 Ti, individual measurement: source data of Fig. 6b/6c, single replicates; for Transition 1 Dti (Ti-Ti Apo) / Transition 1 Ti Mean / Transition 2 DTi (Ti-Ti Apo) / Transition 2 Ti Mean: source data of Fig. 6c, N 3
Method: as §1
Thermal protein denaturation was documented by recording intrinsic protein fluorescence at 330 and 350 nm wavelengths. The fluorescence recorded in each thermal run is plotted as 350/330 nm ratio and used to calculate the Inflection Temperature (Ti). Ti is the temperature at which a protein undergoes a transition in its folding state. This calculation is performed automatically by the Tycho NT.6 software. The protocol optimized for this procedure, involves a heating time of 2 min, a sample volume of 10 μl placed in a very thin capillary, and a temperature ramp from 35 °C (308 K) to 95 °C (368 K). For the experiment, IP3K-KD was diluted with buffer D to achieve a concentration of 0.31 mg/mL (10 μM). It was then mixed with 100 μM of chiral ligands or 200 μM of racemic ligands (all synthesized as stated in this work except InsP3 and InsP4 that were commercial from Avanti Polar Lipids), AMP-PNP (substrate analogues) or ADP (product-like ligands) and 100 μM MgCl2. Microsoft Excel was used to calculate and plot ΔTi values and standard deviations.

[4] = biological target: T2, IP3K-KD (Homo sapiens, UniProt P23677); experiment: Direct binding of 2-FITC-InsP3 to IP3K-KD, one-site binding model; details: GraphPad Prism
T2 construct: human IP3K-KD A isoform (residues 187–461); GST (cleaved yes); made in house; host or cells: Escherichia coli BL21 star (DE3)

[5] = biological target: T2, IP3K-KD; experiment: HPLC analysis of IP3K-KD reaction mixtures (substrate test); type: biochemical; details: 150 nM IP3K-KD, 500 μM analogue, 1 mM ATP, 2 h at 30 °C, Fig. 7a
Method: as §1

[6] = tested on: permeabilized rabbit platelets; set-up: method as in doi:10.1016/0960-894X(96)00399-X; details: cited from earlier work

T2 sequence (P23677 187-461): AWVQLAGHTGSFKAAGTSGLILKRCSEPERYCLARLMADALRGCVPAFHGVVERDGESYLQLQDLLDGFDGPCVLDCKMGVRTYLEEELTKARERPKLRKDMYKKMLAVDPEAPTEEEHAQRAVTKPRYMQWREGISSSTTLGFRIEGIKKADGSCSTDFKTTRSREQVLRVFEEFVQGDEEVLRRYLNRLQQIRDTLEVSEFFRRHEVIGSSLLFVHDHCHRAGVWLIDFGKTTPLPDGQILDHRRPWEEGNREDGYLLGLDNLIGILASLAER
T1 sequence (P23677 187-461): as above

| SMILES | IC50 [2] | Quality as IP3K ligand (in words) [2] | Kd [2] | Ti, transition 1 (mean inflection temperature) [3] | Ti, transition 2 (mean inflection temperature) [3] | ΔTi, transition 1 [3] | ΔTi, transition 2 [3] | Transition 1 Ti, individual measurement [3] | Transition 2 Ti, individual measurement [3] | Transition 1 Dti (Ti-Ti Apo) [3] | Transition 1 Ti Mean [3] | Transition 2 DTi (Ti-Ti Apo) [3] | Transition 2 Ti Mean [3] | Kd [4] | Ability to act as IP3K substrate (in words) [5] | Stabilization of IP3K-KD by ligand (in words) ([3]; thermal shift, Fig. 6c) | Ability to stimulate cellular Ca2+ release [1] | 45Ca2+ release relative to InsP3 [6] |
| --- | --- | --- | --- | --- | --- | --- | --- | --- | --- | --- | --- | --- | --- | --- | --- | --- | --- | --- |
| O=P(O)(O)OCC1C(O)C(OP(=O)(O)O)C(O)C(OP(=O)(O)O)C1OP(=O)(O)O (racemic) [5-p, DL-6-deoxy-6-phosphoryloxymethyl-scyllo-inositol 1,2,4-trisphosphate] | 0.875 µM | maintains quite good binding to IP3K | 0.85 µM | 52.1 ± 0.1 ºC | 57.6 ± 0.1 ºC | 7.7 ± 0.3 ºC | 3.8 ± 0.2 ºC | 52.2 and 52.1 and 52.0 | 57.6 (2×) and 57.7 | 7.7 | 52.1 | 3.8 | 57.6 | – | – | – | abolishes the ability to stimulate cellular Ca^2+ release | – |
| O=P(O)(O)O[C@@H]1[C@@H](O)[C@H](CO)[C@@H](OP(=O)(O)O)[C@H](OP(=O)(O)O)[C@H]1O (racemic) [5-s, DL−6-deoxy-6-hydroxymethyl-scyllo-inositol 1,2,4-trisphosphate] | 0.972 µM | good IP3K ligand | 0.944 µM | 51.3 ± 0.2 ºC | 57.0 ± 0.1 ºC | 6.9 ± 0.4 ºC | 3.2 ± 0.2 ºC | 51.5 and 51.1 and 51.3 | 56.9 (2×) and 57.1 | 6.9 | 51.3 | 3.2 | 57.0 | – | are also substrates | – | – | equipotent with InsP3 itself |
| O=P(O)(O)O[C@H]1O[C@H](CO)[C@@H](OP(=O)(O)O)[C@H](OP(=O)(O)O)[C@H]1O [6b–s, α-D-glucopyranosyl 1,3,4-trisphosphate] | 8.98 µM | – | 8.72 µM | 45.7 ± 0.5 ºC | 54.6 ± 0.0 ºC | 1.3 ± 0.6 ºC | 0.8 ± 0.2 ºC | 45.5 and 46.3 and 45.3 | 54.6 | 1.3 | 45.7 | 0.8 | 54.6 | – | weaker substrates | stabilize IP3K-KD much less than InsP3 | – | – |
| O=P(O)(O)O[C@@H]1[C@@H](O)[C@H](O)[C@@H](OP(=O)(O)O)[C@H](OP(=O)(O)O)[C@H]1O [1-s, L-scyllo-inositol 1,2,4-trisphosphate] | 0.036 µM | – | 0.035 µM | 55.6 ± 0.1 ºC | 60.7 ± 0.2 ºC | 11.2 ± 0.3 ºC | 6.9 ± 0.2 ºC | 55.7 and 55.6 (2×) | 60.8 and 60.5 and 60.7 | 11.2 | 55.6 | 6.9 | 60.7 | – | is a good IP3K substrate | – | – | – |

More lines, main results first:

| IC50 [2] | Quality as IP3K ligand (in words) [2] | Kd [2] | Ti, transition 1 (mean inflection temperature) [3] | Ti, transition 2 (mean inflection temperature) [3] | ΔTi, transition 1 [3] | ΔTi, transition 2 [3] | Transition 1 Ti, individual measurement [3] | Transition 2 Ti, individual measurement [3] | Transition 1 Dti (Ti-Ti Apo) [3] | Transition 1 Ti Mean [3] | Transition 2 DTi (Ti-Ti Apo) [3] | Transition 2 Ti Mean [3] | Kd [4] | Ability to act as IP3K substrate (in words) [5] | Stabilization of IP3K-KD by ligand (in words) ([3]; thermal shift, Fig. 6c) | SMILES | Ability to stimulate cellular Ca2+ release [1] | 45Ca2+ release relative to InsP3 [6] |
| --- | --- | --- | --- | --- | --- | --- | --- | --- | --- | --- | --- | --- | --- | --- | --- | --- | --- | --- |
| – | – | – | – | – | – | – | – | – | – | – | – | – | 0.068 µM | – | – | O=C(O)c1cc(NC(=S)NCCO[C@@H]2[C@H](O)[C@@H](OP(=O)(O)O)[C@H](OP(=O)(O)O)[C@@H](O)[C@@H]2OP(=O)(O)O)ccc1-c1c2ccc(=O)cc-2oc2cc(O)ccc12 [2-FITC-InsP3] | – | – |
| 0.656 µM | – | 0.637 µM | 49.7 ± 0.4 ºC | 56.1 ± 0.3 ºC | 5.3 ± 0.5 ºC | 2.3 ± 0.3 ºC | 50.2 and 49.5 and 49.4 | 55.9 and 56.1 and 56.4 | 5.3 | 49.7 | 2.3 | 56.1 | – | are also substrates | – | O=P(O)(O)OC[C@@H]1O[C@H](CO)[C@@H](OP(=O)(O)O)[C@H](OP(=O)(O)O)[C@H]1O [7a–s, β-D-glucopyranosylmethanol 3,4,1’-trisphosphate] | – | – |
| 0.205 µM | – | 0.199 µM | 51.5 ± 0.2 ºC | 57.3 ± 0.1 ºC | 7.1 ± 0.3 ºC | 3.5 ± 0.2 ºC | 51.4 and 51.5 and 51.7 | 57.4 (2×) and 57.2 | 7.1 | 51.5 | 3.5 | 57.3 | – | are also substrates | – | O=P(O)(O)O[C@@H]1O[C@H](CO)[C@@H](OP(=O)(O)O)[C@H](OP(=O)(O)O)[C@H]1O [6a–s, β-D-glucopyranosyl 1,3,4-trisphosphate] | – | – |
